Earlier results as cited in patent US20100210719A1, “O-DESMETHYLVENLAFAXINE” (DR. REDDY'S LABORATORIES LTD., priority 2007, published 2010).

Details: inferred from the major DSC endotherm at about 120° C. and Tg onset at 18° C. reported in U.S. Pat. No. 6,673,838

stability of the amorphous form: highly unstable
SMILES: CN(C)CC(c1ccc(O)cc1)C1(O)CCCCC1 (stereo not shown) [desvenlafaxine succinate]
